Several values for one entry are separate records, joined by “and”; a condition that tells them apart may be missing. Equal values may be shown once.
Legend:
rNTS2 receptor [1] = biological target: T1, rNTS2 receptor (Rattus norvegicus, UniProt Q63384); assay: 125I-NT competitive binding assay, whole CHO-kl cells over-expressing rNTS2; conditions: competition with 125I-NT; ± SEM; read-out: 125I-NT Binding NTS2 Ki
T1 construct: expressed in transfected cells
T1 sequence (Q63384 1-416): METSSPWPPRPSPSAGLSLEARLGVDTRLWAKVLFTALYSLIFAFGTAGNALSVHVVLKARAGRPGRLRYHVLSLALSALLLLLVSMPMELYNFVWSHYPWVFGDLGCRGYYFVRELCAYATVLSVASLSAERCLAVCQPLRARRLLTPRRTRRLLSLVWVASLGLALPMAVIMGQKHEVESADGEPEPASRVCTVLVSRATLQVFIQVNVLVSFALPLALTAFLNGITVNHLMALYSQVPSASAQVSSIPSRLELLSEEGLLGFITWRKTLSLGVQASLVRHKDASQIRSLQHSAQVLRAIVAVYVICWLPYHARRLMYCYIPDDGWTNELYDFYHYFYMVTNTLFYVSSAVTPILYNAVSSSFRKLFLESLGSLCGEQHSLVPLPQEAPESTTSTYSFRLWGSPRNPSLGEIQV
Experimental: (§1) The binding affinities of the test compounds for the rNTS1 and rNTS2 receptors listed in Tables 1 through 4 were determined using previously reported competitive binding assays^49. […] The cells used in the binding assay were CHO-kl cells (American Type Culture Collection) engineered to over-express either the rNTS1 or rNTS2 receptor. Measures of functional agonism and antagonism were obtained by measuring changes in intensity of a calcium-sensitive fluorescent dye as an indirect measure of changes in internal calcium concentrations. These measurements were performed using a FLIPR Tetra (NTS2) or a FlexStation II plate reader for NTS1 (Molecular Devices) and were analyzed using GraphPad Prism software.
Briefly, cells were plated at 100,000 cells/well in 24-well plates in complete DMEM/F12 medium supplemented with 10% fetal bovine serum, 100 units of penicillin/mL, 100 μg of streptomycin/mL, 0.1 mg/mL of normocin, and 250 μg/mL geneticin. Cells were incubated at 37° C. with 5% CO2 and 95% humidity for 48 hrs. […] Cells were washed twice in Earle's buffer, extracted in 1 ml 0.1N NaOH and counted in a Packard Cobra II Gamma Counter for 1 minute.
(§2) To determine EC50, IC50, and Ke values, data were fit to a three-parameter logistic equation using GraphPad Prism software. Ki values for radioligand binding assays were determined from ICso values using the equation of Cheng and Prusoff. All data are from at least three independent experiments run in duplicate wells.

rNTS2 receptor [2] = biological target: T1, rNTS2 receptor; assay: Calcium mobilization assay for NTS2 receptor (FLIPR Tetra); assay type: cell-based; conditions: for NTS2 Emax % of 5b / EC50: FLIPR assay, ± SEM; for NTS2 Emax % of 5b: calcium release relative to 5b; for EC50: compound induced calcium release, CHO-kl-rNTS2 cells; for activity in NTS2 FLIPR assay: calcium release
Experimental: as §1
CHO-kl-rNTS2 cells were maintained in DMEM/F12 supplemented with 10% FBS, pen/strep, 100 μg/ml normocin, and 400 μg/ml geneticin. For calcium mobilization assays, cells were plated at 25,000 cells/well in black, clear-bottom 96-well plates 24 hrs before the assay and incubated at 37° C., 5% CO2. 100 μl reconstituted Calcium 5 dye (Molecular Devices, diluted 1:20 in assay buffer (1×HBSS, 20 mM HEPES, 2.5 mM Probenicid, pH 7.4)) was added per well and plates were incubated for 45 min at 37° C., 5% CO2. […] Full-log serial dilutions of the test compounds were made at 10× the desired final concentration in 1% DMSO assay buffer and warmed to 37° C. After the pre-treatment incubation, fluorescence intensity was measured on a FLIPR Tetra fluorometric imaging plate reader (Molecular Devices). Relative Fluorescence Units (RFUs) were measured every second for 100 seconds (14 readings before compound addition to establish baseline fluorescence, 85 after) Exposure time 0.53 s, Gain=2000, Excitation intensity=30%, Gate open=10%. For antagonist assays, 1/10 volume of 10×concentration of the test compound dilutions in 10% DMSO in assay buffer was added to cells in lieu of the 10% DMSO only in assay buffer for the pre-treatment.
as §2

rNTS1 receptor = biological target: T2, rNTS1 receptor (Rattus norvegicus, UniProt P20789); assay: Calcium mobilization assay for NTS1 receptor (FLIPR assay, FlexStation II); assay type: cell-based; conditions: for Kb: read-out: NTS1 Ke; for activity in NTS1 FLIPR assay: agonist and antagonist mode versus NT
T2 construct: expressed in transfected cells
T2 sequence (P20789 whole entry): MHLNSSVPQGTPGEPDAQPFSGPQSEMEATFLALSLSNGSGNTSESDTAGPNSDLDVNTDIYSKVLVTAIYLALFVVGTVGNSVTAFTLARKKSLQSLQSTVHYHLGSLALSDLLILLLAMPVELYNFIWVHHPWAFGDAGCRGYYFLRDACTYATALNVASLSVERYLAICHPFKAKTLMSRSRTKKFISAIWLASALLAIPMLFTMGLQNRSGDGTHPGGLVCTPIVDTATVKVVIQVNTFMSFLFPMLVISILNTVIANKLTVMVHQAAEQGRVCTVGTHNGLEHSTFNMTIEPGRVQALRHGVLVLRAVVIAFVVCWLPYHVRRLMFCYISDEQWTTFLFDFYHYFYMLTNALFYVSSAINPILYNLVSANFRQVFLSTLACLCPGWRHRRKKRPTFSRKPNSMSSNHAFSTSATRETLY
Experimental: as §1
CHO-kl-rNTS1 cells were maintained in DMEM/F12 medium supplemented with 10% fetal bovine serum (Gibco), 100 U/ml penicillin/100 ug/ml streptomycin, 100 ug/ml normocin (Invivogen), and 250 ug/ml geneticin. For calcium mobilization assays, cells were plated at 30,000 cells/well in black, clear-bottom 96-well plates 24 hrs before the assay and incubated at 37° C., 5% CO2. Prior to the assay, Calcium 5 dye (Molecular Devices) was reconstituted according to manufacturer instructions. The reconstituted dye was diluted 1:40 in assay buffer (lx HBSS, 20 mM HEPES, and 2.5 mM Probenicid (Sigma), pH 7.4). Growth media was removed and 200 ul of this diluted dye was added to each well. Plates were incubated for 45 min at 37° C., 5% CO2 after dye addition. […] Full-log serial dilutions of the test compounds were made at 10× the desired final concentration in 1% DMSO assay buffer and warmed to 37° C. After the pre-treatment incubation, fluorescence intensity was measured on a FlexStation II fluorometric imaging plate reader (Molecular Devices). Relative fluorescence units (RFU) were measured before (20 readings) and after (40 readings) the agonist compound addition for a total 60 second read time (Excitation=485 nm, Emission=525 nm, cutoff=515 nm). For antagonist assays, cells were treated with Calcium dye for 45 min at 37° C., 5% CO2 as with the agonist assays. Then the test antagonist compounds were added in 1% DMSO in assay buffer and the plate was incubated for 15 min at 37° C., 5% CO2.
as §2

[3] = antagonism of NT induced calcium release, ± SEM

| NTS1 Ke (rNTS1 receptor; [3]) [nM] | EC80 of 5b (rNTS2 receptor [2]; final concentration used in IC50 assays) [nM] | Structure (SMILES) | Ki (rNTS2 receptor [1]) [nM] | NTS2 Emax % of 5b (rNTS2 receptor [2]) | EC50 (rNTS2 receptor [2]) [nM] | Kb (rNTS1 receptor; [3]) [nM] | activity in NTS1 FLIPR assay (rNTS1 receptor) | activity in NTS2 FLIPR assay (rNTS2 receptor [2]) |
| --- | --- | --- | --- | --- | --- | --- | --- | --- |
| – | – | COc1ccc(-c2cc(C(=O)N[C@H](C(=O)O)C3CCCCC3)nn2-c2ccnc3cc(Cl)ccc23)c(OC)c1 [16b, (2S)-({[1-(7-Chloroquinolin-4-yl)-5-(2,4-dimethoxyphenyl)-1H-pyrazol-3-yl]carbonyl}-amino)-(cyclohexyl)ethanoic Acid] | 1580 ± 505 | 12 ± 3 % of 5b | 382 ± 33 | – | – | – |
| – | – | COc1cccc(OC)c1-c1cc(C(=O)NC2(C(=O)O)CCCCC2)nn1-c1ccnc2cc(Cl)ccc12 [21b, 1-({[1-(7-Chloroquinolin-4-yl)-5-(2,6-dimethoxyphenyl)-1H-pyrazol-3-yl]carbonyl}amino)cyclo-hexanecarboxylic Acid] | 151 | 78 % of 5b and 78 ± 7 % of 5b | 29 ± 2 | 157 ± 45 | – | – |
| – | – | COc1cccc(OC)c1-c1cc(C(=O)NC2(C(=O)O)CCCCCC2)nn1-c1ccnc2cc(Cl)ccc12 [20b, 1-({[1-(7-Chloroquinolin-4-yl)-5-(2,6-dimethoxyphenyl)-1H-pyrazol-3-yl]carbonyl}amino)cyclo-heptanecarboxylic Acid] | 170 | 89 ± 5 % of 5b | 21 ± 5 | 42 ± 6 | – | – |
| – | – | COc1ccccc1-c1cc(C(=O)N[C@H](C(=O)O)C2CCCCC2)nn1-c1ccnc2cc(Cl)ccc12 [17b, (2S)-({[1-(7-chloroquinolin-4-yl)-5-(2-methoxyphenyl)-1H-pyrazol-3-yl]carbonyl}amino)(cyclohexyl) ethanoic acid] | 1420 ± 468 | 25 ± 2 % of 5b | 258 ± 14 | 1680 ± 527 | – | – |
| – | – | COc1cccc(OC)c1-c1cc(C(=O)N[C@H](C(=O)O)C2CCCCC2)nn1-c1cccc2ccccc12 [24b, (2S)-Cyclohexyl({[5-(2,6-dimethoxyphenyl)-1-naphthalen-1-yl-1H-pyrazol-3-yl]carbonyl}amino)-ethanoic Acid] | 536 ± 20 | 45 % of 5b and 45 ± 1 % of 5b | 159 ± 9 | 58 ± 6 | – | – |
| – | – | O=C(N[C@H](C(=O)O)C1CCCCC1)c1cc(-c2c(F)cccc2F)n(-c2ccnc3cc(Cl)ccc23)n1 [18b, (2S)-({[1-(7-Chloroquinolin-4-yl)-5-(2,6-difluorophenyl)-1H-pyrazol-3-yl]carbonyl}amino) (cyclohexyl)ethanoic Acid] | 1000 ± 227 | 15 ± 3 % of 5b | 166 ± 3 | – | – | – |
| – | – | COc1cccc(OC)c1-c1cc(C(=O)NC2C3CC4CC(C3)CC2C4)nn1-c1ccnc2cc(Cl)ccc12 (centres unmarked) [compound 13, 1-(7-chloroquinolin-4-yl)-5-(2,6-dimethoxyphenyl)-N-tricyclo[3.3.1.13,7]dec-2-yl-1H-pyrazole-3-carboxamide] | – | – | – | – | inactive | inactive |
| 1.5 ± 0.6 | 73 | COc1cccc(OC)c1-c1cc(C(=O)NC2(C(=O)O)C3CC4CC(C3)CC2C4)nn1-c1ccc(C(=O)N(C)CCCN(C)C)cc1C(C)C (centres unmarked) [5b, reference compound] | 6 | 100 ± 5 % of 5b | 20 | 1.5 | – | – |
| – | – | COc1ccccc1-c1cc(C(=O)NC2(C(=O)O)CCCCC2)nn1-c1ccnc2cc(Cl)ccc12 [23b, 1-({[1-(7-Chloroquinolin-4-yl)-5-(2-methoxyphenyl)-1H-pyrazol-3-yl]carbonyl}amino)cyclohexane carboxylic Acid] | 533 ± 153 | 35 % of 5b and 35 ± 1 % of 5b | 62 ± 9 | 4550 ± 636 | – | – |
| – | – | COc1cccc(OC)c1-c1cc(C(=O)N[C@H](C(=O)O)C2CCCCC2)nn1-c1ccc(F)cc1 [28b, (2S)-Cyclohexyl({[5-(2,6-dimethoxyphenyl)-1-(4-fluorophenyl)-1H-pyrazol-3-yl]carbonyl}amino)ethanoic Acid] | 622 ± 245 | 22 ± 5 % of 5b | 271 ± 24 | 3340 ± 549 | – | – |
| – | – | COc1cccc(OC)c1-c1cc(C(=O)NC2(C(=O)O)CCCCC2)nn1-c1cccc2ccccc12 [26b, 1-({[5-(2,6-Dimethoxyphenyl)-1-naphthalen-1-yl-1H-pyrazol-3-yl]carbonyl}amino)cyclohexane-carboxylic Acid] | 116 ± 39 | 35 % of 5b and 35 ± 1 % of 5b | 18 ± 1.6 | 230 ± 79 | – | – |
| – | – | C[C@@H]1CN([C@H]2CC[C@](C#N)(c3ccc(F)cc3)CC2)CC[C@]1(C(=O)O)c1ccccc1 [compound 6, Levocabastine, reference compound] | 33 | 16 % of 5b and 16 ± 3 % of 5b | 28 | – | neither agonist nor antagonist activity | – |
| – | – | COc1cccc(OC)c1-c1cc(C(=O)NC2(C(=O)O)C3CC4CC(C3)CC2C4)nn1-c1ccnc2cc(Cl)ccc12 (centres unmarked) [5a, Meclinertant, reference compound] | – | 100 % of 5b and 100 ± 3 % of 5b and 100 ± 15 % of 5b | – | – | – | – |
| – | – | COc1cccc(OC)c1-c1cc(C(=O)N[C@H](C(=O)O)C2CCCCC2)nn1-c1ccnc2cc(Cl)ccc12 [14b, (2S)-({[1-(7-Chloroquinolin-4-yl)-5-(2,6-dimethoxyphenyl)-1H-pyrazol-3-yl]carbonyl}amino)-(cyclohexyl)ethanoic Acid] | 644 | 86 % of 5b and 86 ± 3 % of 5b | 217 ± 19 | 23 ± 6 | – | – |
| – | – | CC[C@H](C)[C@H](NC(=O)[C@H](Cc1ccc(O)cc1)NC(=O)[C@@H]1CCCN1C(=O)[C@H](CCCNC(=N)N)NC(=O)[C@@H](N)CCCNC(=N)N)C(=O)N[C@@H](CC(C)C)C(=O)O [compound 1, Arg-Arg-Pro-Tyr-Ile-Leu, reference compound] | – | – | – | – | – | neither NT nor the NT(8-13) fragment (1) showed any calcium release |
| – | – | CCc1c(C(=O)N[C@H](C(=O)O)C2CCCCC2)nn(-c2ccnc3cc(Cl)ccc23)c1-c1c(OC)cccc1OC [19b, (2S)-({[1-(7-Chloroquinolin-4-yl)-5-(2,6-dimethoxyphenyl)-4-ethyl-1H-pyrazol-3-yl]carbonyl}amino)(cyclohexyl)ethanoic Acid] | – | 15 % of 5b and 15 ± 1 % of 5b | – | – | – | – |

— patent US20170174633A1 (RESEARCH TRIANGLE INSTITUTE, priority 2014, published 2017)
